# Reference: PubChem BioAssay (NCI)
#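 Dose response: 5 concentrations. Exposure: 48 h. Format: 96-well plates. Endpoint: linear interpolation; highest concentration if not reached. TGI: concentration producing complete growth inhibition.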
# Assays:
# Assay in all cases: inhibition of tumour cell growth, NCI panel, 48 h
# MDA-MB-435 = test system: MDA-MB-435
# SK-MEL-28 melanoma = test system: SK-MEL-28 melanoma
# HT29 colon = test system: HT29 colon
# CCRF-CEM leukemia = test system: CCRF-CEM leukemia
# HS 578T breast = test system: HS 578T breast
# A498 renal = test system: A498 renal
# CAKI-1 renal = test system: CAKI-1 renal
# EKVX NSCLC = test system: EKVX NSCLC
# OVCAR-4 ovarian = test system: OVCAR-4 ovarian
# MALME-3M melanoma = test system: MALME-3M melanoma
SMILES,TGI (MDA-MB-435),TGI (SK-MEL-28 melanoma),TGI (HT29 colon),TGI (CCRF-CEM leukemia),TGI (HS 578T breast),TGI (A498 renal),TGI (CAKI-1 renal),TGI (EKVX NSCLC),TGI (OVCAR-4 ovarian),TGI (MALME-3M melanoma)
Nc1nc(Cl)cc(NCC2(O)CC2)n1,> 100 µM,> 100 µM,> 100 µM,> 100 µM,> 100 µM,> 100 µM,> 100 µM,> 100 µM,> 100 µM,> 100 µM
CCCCSc1nsc(N(C(=O)c2ccccc2)C(=O)c2ccccc2)n1,> 100 µM,> 100 µM,82.5 µM,> 100 µM,89.7 µM,88.8 µM,> 100 µM,77.4 µM,> 100 µM,71.1 µM
CSc1nc(NC(C)C)c2c(n1)Sc1nc3ccccc3n1N=C2,70.3 µM,> 100 µM,> 100 µM,> 100 µM,54.5 µM,12.6 µM,> 100 µM,> 100 µM,22.5 µM,38 µM
COc1cccc2c1C(=O)c1c(O)c3c(c(O)c1C2=O)C[C@H](O)C[C@@H]3OC1CC(N)C(O)C(C)O1 (stereo not given in full),8.05 µM,9.13 µM,14.1 µM,6.06 µM,5.97 µM,4.5 µM,4.83 µM,20.8 µM,21.4 µM,3.57 µM
COC(=O)C1C(C(=O)OC)C2(OC(c3ccc(Cl)cc3)=CC2=O)C12OC(c1ccc(Cl)cc1)=CC2=O (stereo not given),> 100 µM,> 100 µM,45.2 µM,8.23 µM,> 100 µM,76.1 µM,59 µM,54.9 µM,64.1 µM,31.6 µM
COc1ccccc1CN=C1Nc2ccncc2S(=O)(=O)N1c1ccccc1,> 100 µM,> 100 µM,> 100 µM,> 100 µM,> 100 µM,> 100 µM,> 100 µM,> 100 µM,> 100 µM,> 100 µM
c1ccc2c(c1)Sc1nccc3ccnc-2c13,> 100 µM,> 100 µM,65.5 µM,> 100 µM,65.3 µM,> 100 µM,41 µM,> 100 µM,> 100 µM,> 100 µM
NC(=O)c1csc(C2(O)COC(CO)C2O)n1 (stereo not given),> 100 µM,> 100 µM,> 100 µM,> 100 µM,> 100 µM,> 100 µM,> 100 µM,> 100 µM,> 100 µM,> 100 µM
Cc1[nH]c(=O)nc(NCCNCCO)c1C(=O)Nc1cccc2cc3ccccc3cc12,> 100 µM,> 100 µM,> 100 µM,> 100 µM,> 100 µM,> 100 µM,> 100 µM,> 100 µM,> 100 µM,> 100 µM
CC1=NN(c2nc(N)nc(-c3sccc3N)n2)C(C)(C)C1,> 100 µM,> 100 µM,> 100 µM,> 100 µM,> 100 µM,> 100 µM,> 100 µM,> 100 µM,> 100 µM,> 100 µM
CCn1c2ccc(C(=O)CCCN3CCCCC3)cc2c2cc(C(=O)CCCN3CCCCC3)ccc21,3.3 µM,34.8 µM,4.2 µM,9.83 µM,7.06 µM,10.3 µM,8.54 µM,15.8 µM,5.65 µM,18.5 µM
CC(C)c1cccc(C(C)C)c1NC(=O)/C(CC(=O)CC(c1ccccc1)c1c(O)c2ccccc2oc1=O)=N/O (stereo not given),> 100 µM,> 100 µM,> 100 µM,> 100 µM,> 100 µM,> 100 µM,> 100 µM,> 100 µM,> 100 µM,> 100 µM
C=C1C(OC2O[C@@H]3O[C@@]4(C)CC[C@H]5[C@H](C)CC[C@@H](C2=C)[C@@]35O4)O[C@@H]2O[C@@]3(C)CC[C@H]4[C@H](C)CC[C@@H]1[C@@]24O3 (stereo not given in full),> 50 µM,> 50 µM,> 50 µM,> 50 µM,> 50 µM,> 50 µM,> 50 µM,> 50 µM,> 50 µM,> 50 µM
Cc1cc2c(O)c(c1)CN(CC(=O)O)Cc1cc(C)cc(c1O)CN(CC(=O)O)Cc1cc(C)cc(c1O)CN(CC(=O)O)C2,> 100 µM,> 100 µM,> 100 µM,> 100 µM,> 100 µM,> 100 µM,> 100 µM,> 100 µM,> 100 µM,> 100 µM
O=c1c(Cc2ccc(Cl)cc2)nnc2sc(-c3ccc(-c4ccc(F)c(Cl)c4)o3)nn12,> 100 µM,> 100 µM,> 100 µM,> 100 µM,> 100 µM,> 100 µM,> 100 µM,> 100 µM,> 100 µM,> 100 µM
C=C1OC(c2ccccc2NC)=NC12CCCCC2,> 100 µM,> 100 µM,> 100 µM,> 100 µM,> 100 µM,> 100 µM,> 100 µM,> 100 µM,> 100 µM,> 100 µM
O=C1C=CC(=O)c2c(O)c(N3CCC[C@H]3CO)c(Cl)c(O)c21,3.45 µM,2.23 µM,> 10 µM,0.757 µM,> 8.27 µM,> 10 µM,3.57 µM,> 10 µM,3.93 µM,3.21 µM
Cc1cc(S(=O)(=O)/N=C(/C(=C=[N-])C#N)[n+]2ccc(N(C)C)cc2)c(SCC(=O)O)cc1Cl,> 100 µM,> 100 µM,> 100 µM,> 100 µM,> 100 µM,> 100 µM,> 100 µM,> 100 µM,> 100 µM,64.5 µM
